Source: US20230202973A1, “BARNESIN A, DERIVATIVES AND USES THEREOF” (Leibniz-Institut Für Naturstoff-Forschung Und …, priority 2018, published 2023)
Like-named read-outs stand apart in the source and are kept apart here. Square brackets hold non-standard residues; d marks the D form. Peptide text beside a SMILES is read from it. * marks the point of attachment. Isovaleryl = CC(C)CC(=O)*

Columns and labels:
ficin = experiment: Protease assay with azocasein: ficin; format: biochemical; details: azocasein substrate, pH 7.2; n.i. = no inhibition; read-out: Ficin, inhibitory activity as IC50 value
Description: (§1) Protease Assays with azocasein: Protease inhibition assays against the proteases papain, ficin, trypsin, pepsin and thermolysin were performed according to the protocol of Garcia-Carreño (loc. cit.) in a reaction buffer containing 25 mM TRIS-HCl, 0.15 M NaCl, pH 7.2 (or pH 3.5 for aspartic protease). The total assay volume was 47 μL buffer with 2 μL of the protease as well as 1 μL of suitable inhibitor or corresponding inhibitor solvent (100% MeoH or water). Final concentration of proteases was as follows: 2 mg/mL for papain (Sigma-Aldrich, P4762), 600 μg/mL for ficin (Sigma-Aldrich, F6008), 80 μg/mL for trypsin (Thermo Fisher, 23266), 60 mg/mL for pepsin (Sigma-Aldrich P6887)) and 2 μg/mL for thermolysin (Sigma-Aldrich, P1512).
(§2) Inhibitors were dissolved in 100% MeOH or water and added to the assay (1 μL); final concentration: 2% MeOH. Samples of control inhibitors were prepared as follows: (1) serine protease (trypsin): PMFS (2 mM) and soybean trypsin inhibitor (240 μM) (Sigma-Aldrich, T1021), (2) cysteine proteases (papain and ficin): iodacetamide (2 mM), (3) […] (pepsin): pepstatin A (1 μg/mL) (Sigma-Aldrich, P4265), (4) metalloprotease (thermolysin): EDTA (10 mM). […] Negative controls were performed with protease alone (without inhibitor) and MeOH at a final concentration of 2% (reference for activity of 100%). Extract absorbance controls were performed using inhibitor (1 μL in MeOH) without protease. Blanks were performed using 49 μL buffer and 1 μL MeOH.
(§3) Samples were incubated with buffer and suitable inhibitor (or without for negative controls) for 1 h at r.t. and the reaction was started afterward by adding 50 μl of […] substrate and incubated for 1 h at 37° C. After stopping the reaction with trichloracetic acid (TCA), the separation of the precipitate was accomplished by centrifugation at 6500 g for 5 min. The hydrolyzed substrate supernatant was incubated in an equal volume of 0.5 N NaOH for 5 min and the absorbance was measured at 440 nm. OD values of the protease control without inhibitor were used as reference for a 100% activity.
(§4) The log IC50 values were determined using the standard curves analyzing tool with four parameter logistic equation of SigmaPlot12 with technical triplicates. Propagation of error was calculated using the standard error and log IC50 values where the equation of error propagation is defined as Δy=0.43Δx/x.

pepsin = molecular target: T1, pepsin (Sus scrofa, UniProt P00791); experiment: Protease assay with azocasein: pepsin; format: biochemical; details: azocasein substrate, pH 3.5; n.i. = no inhibition
T1 construct: purchased Sigma-Aldrich P6887
Description: as §1, §2, §3, §4

thermolysin = molecular target: T2, thermolysin (Bacillus thermoproteolyticus, UniProt P00800); experiment: Protease assay with azocasein: thermolysin; format: biochemical; details: azocasein substrate, pH 7.2; n.i. = no inhibition
T2 construct: purchased Sigma-Aldrich P1512
Description: as §1, §2, §3, §4

papain [1] = molecular target: T3, papain (Carica papaya, UniProt P00784); experiment: Protease assay with azocasein: papain; format: biochemical; details: azocasein substrate, pH 7.2; n.i. = no inhibition; read-out: Papain, inhibitory activity as IC50 value
T3 construct: purchased Sigma-Aldrich P4762
T3 sequence (P00784 134-345): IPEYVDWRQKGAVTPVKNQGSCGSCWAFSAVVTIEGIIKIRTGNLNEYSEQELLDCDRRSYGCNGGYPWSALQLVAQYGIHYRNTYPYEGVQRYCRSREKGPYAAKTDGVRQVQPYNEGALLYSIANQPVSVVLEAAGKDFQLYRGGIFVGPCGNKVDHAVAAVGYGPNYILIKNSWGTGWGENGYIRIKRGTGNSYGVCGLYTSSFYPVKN
Description: as §1, §2, §3, §4

Cathepsin B [2] = molecular target: T4, Cathepsin B (Homo sapiens, UniProt P07858); experiment: Cathepsin B inhibition assay (Z-Arg-Arg-AMC); format: biochemical; details: Z-Arg-Arg-AMC substrate, pH 6.0; n.i. = no inhibition; read-out: Cathepsin B, inhibitory activity as IC50 value
Description: Cathepsin B inhibition assay. Cathepsin B inhibition assay was determined according to Hiwasa et al. (loc. cit.) with minor changes. Cathepsin B was purchased from Sigma Aldrich (C0150) and stored in 50 mM sodium acetate, 1 mM EDTA, pH 5 (adjusted with acetic acid). Cathepsin B was activated by preincubation at 40° C. for 10 min in assay buffer (0.1 M sodium acetate 1.3 mM EDTA, pH 6.0 adjusted with acetic acid, 2 μM DTT, 2.6 mM cysteine and 0.05% Triton X100). […] Final concentration of cathepsin B was 0.1 mg/ml. […] After stopping the reaction with 85 μL buffer containing 100 mM sodium monochlor acetate, 30 mM sodium acetate, 70 mM acetic acid, the hydrolyzed substrate was detected at an excitation wavelength of 380 nm and a fluorescence wavelength of 450 nm, using a fluorophotometer. 1 μL of 1.5 mM leupeptin was used as enzyme inhibition control.

trypsin [3] = molecular target: T5, trypsin (Bos taurus, UniProt P00760); experiment: Protease assay with azocasein: trypsin; format: biochemical; details: azocasein substrate, pH 7.2; n.i. = no inhibition
T5 construct: purchased Thermo Fisher 23266
T5 sequence (P00760 24-246): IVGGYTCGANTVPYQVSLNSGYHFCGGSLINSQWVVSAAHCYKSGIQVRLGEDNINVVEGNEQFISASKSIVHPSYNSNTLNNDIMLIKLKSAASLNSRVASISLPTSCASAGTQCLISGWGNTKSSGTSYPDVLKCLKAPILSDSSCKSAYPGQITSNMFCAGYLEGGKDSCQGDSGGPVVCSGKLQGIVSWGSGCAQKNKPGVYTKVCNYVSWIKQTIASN
Description: as §1, §2, §3, §4

Rhodesain = Rhodesain (Trypanosoma brucei rhodesiense, UniProt Q95PM0); experiment: Fluorescence-based activity test against rhodesain; format: biochemical; details: initial screen at an inhibitor concentration of 20 mM; ni = no inhibition
Description: (§5) Activity Tests Against Cathepsin B, Cathepsin L and Rhodesain.
Rhodesain is a central cysteine protease from Trypanosoma brucei rhodesiense and a potential drug target against human African trypanosomiasis (sleeping sickness).
(§6) The determination of the activity of the inhibitors against hCatL and RD was performed in fluorescence-based assays in accordance with the assays described in Giroud et al., ChemMedChem 12 (2017), 257-270 and Schirmeister, Bioorganic & Medicinal Chemistry Letters 27 (2017) 45-50. The biological activities against hCatL were determined using Cbz-Phe-Arg-AMC as substrate, which releases AMC (7-amino-4-methylcoumarin) after amide bond cleavage by the enzyme. The proteolytic activity of the enzyme can be monitored spectrophotometrically by the increase of fluorescence intensity by release of AMC (emission at 460 nm) upon hydrolysis. An initial screen at an inhibitor concentration […] was performed to identify ligands with an inhibition of hCatL and RD higher than 80%.

Cathepsin B [4] = molecular target: T4, Cathepsin B; experiment: Activity test against cathepsin B (initial screen, Table 5); format: biochemical; set-up: dose or concentration left out as unconfirmed
Description: as §5, §6

hCatL = hCatL (Homo sapiens, UniProt P07711); experiment: Fluorescence-based activity test against cathepsin L (Cbz-Phe-Arg-AMC); format: biochemical; set-up: dose or concentration left out as unconfirmed
Description: as §5, §6

papain [5] = molecular target: T3, papain; details: reported in literature for known compounds; read-out: Papain, reported inhibitory activity as IC50 value; cited from earlier work
Cathepsin B [6] = molecular target: T4, Cathepsin B; details: reported in literature; cells printed in nM; read-out: Cathepsin B, reported inhibitory activity as IC50 value; cited from earlier work
trypsin [7] = details: reported in literature for known compounds; read-out: Trypsin, reported inhibitory activity as IC50 value; cited from earlier work
[8] = test system: trypsin (Thermo Fisher, 23266); experiment: Protease assay with azocasein, trypsin; format: biochemical; details: 2 mM PMFS
Description: Protease Assays with azocasein: Protease inhibition assays against the proteases papain, ficin, trypsin, pepsin and thermolysin were performed according to the protocol of Garcia-Carreño (loc. cit.) in a reaction buffer containing 25 mM TRIS-HCl, 0.15 M NaCl, pH 7.2 (or pH 3.5 for aspartic protease). The total assay volume was 47 μL buffer with 2 μL of the protease as well as 1 μL of suitable inhibitor or corresponding inhibitor solvent (100% MeoH or water). […]
Inhibitors were dissolved in 100% MeOH or water and added to the assay (1 μL); final concentration: 2% MeOH. […] Extract absorbance controls were performed using inhibitor (1 μL in MeOH) without protease. […]
Samples were incubated with buffer and suitable inhibitor (or without for negative controls) for 1 h at r.t. and the reaction was started afterward by adding 50 μl of […] substrate and incubated for 1 h at 37° C. […] The hydrolyzed substrate supernatant was incubated in an equal volume of 0.5 N NaOH for 5 min and the absorbance was measured at 440 nm. […]
as §4

T1 sequence (P00791 60-385): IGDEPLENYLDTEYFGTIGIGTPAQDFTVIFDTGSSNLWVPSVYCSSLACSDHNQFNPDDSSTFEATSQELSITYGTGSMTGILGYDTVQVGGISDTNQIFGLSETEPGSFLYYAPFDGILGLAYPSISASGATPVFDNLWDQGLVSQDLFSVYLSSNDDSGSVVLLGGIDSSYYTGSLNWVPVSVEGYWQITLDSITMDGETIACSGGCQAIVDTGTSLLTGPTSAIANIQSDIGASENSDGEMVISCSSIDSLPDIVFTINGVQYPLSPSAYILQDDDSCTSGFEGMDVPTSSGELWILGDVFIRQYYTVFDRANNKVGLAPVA
T2 sequence (P00800 233-548): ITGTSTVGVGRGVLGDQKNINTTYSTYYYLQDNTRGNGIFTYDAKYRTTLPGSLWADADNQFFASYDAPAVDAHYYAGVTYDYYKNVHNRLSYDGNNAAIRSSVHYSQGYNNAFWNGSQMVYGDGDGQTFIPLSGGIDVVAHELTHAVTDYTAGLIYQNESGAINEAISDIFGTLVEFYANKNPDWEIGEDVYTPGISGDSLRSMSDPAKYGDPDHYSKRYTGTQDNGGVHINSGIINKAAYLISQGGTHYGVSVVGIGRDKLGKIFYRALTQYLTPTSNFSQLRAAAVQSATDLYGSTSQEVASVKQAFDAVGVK
Rhodesain, sequence (Q95PM0 entry or part of it): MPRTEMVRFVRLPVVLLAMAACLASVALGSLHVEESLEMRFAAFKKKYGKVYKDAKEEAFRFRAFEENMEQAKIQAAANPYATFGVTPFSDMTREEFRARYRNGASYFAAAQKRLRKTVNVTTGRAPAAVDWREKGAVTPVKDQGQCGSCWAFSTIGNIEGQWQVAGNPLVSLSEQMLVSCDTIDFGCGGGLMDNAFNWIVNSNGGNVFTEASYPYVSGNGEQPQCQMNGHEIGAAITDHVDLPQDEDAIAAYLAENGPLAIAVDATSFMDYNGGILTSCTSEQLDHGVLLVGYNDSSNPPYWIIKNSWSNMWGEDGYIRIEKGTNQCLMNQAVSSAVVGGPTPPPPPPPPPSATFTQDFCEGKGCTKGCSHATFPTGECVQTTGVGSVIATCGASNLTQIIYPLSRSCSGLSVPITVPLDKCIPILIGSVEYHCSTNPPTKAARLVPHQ
hCatL, sequence (P07711 114-333): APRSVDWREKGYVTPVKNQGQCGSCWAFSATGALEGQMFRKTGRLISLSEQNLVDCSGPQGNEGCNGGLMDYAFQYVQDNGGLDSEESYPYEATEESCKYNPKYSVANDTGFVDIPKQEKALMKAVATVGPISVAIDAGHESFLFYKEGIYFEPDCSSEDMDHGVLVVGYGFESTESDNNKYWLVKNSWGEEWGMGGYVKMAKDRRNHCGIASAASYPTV

With `CCCCC/C=C/C(=O)N[C@@H](Cc1ccc(O)cc1)C(=O)N[C@H](/C=C/C(=O)O)CCCNC(=N)N` [Barnesin A (1), Barnesin A] as the molecule, how does the IC50 (ficin) read?
The IC50 was 3430 nM.

And the “Pepsin, inhibitory activity as IC50 value” (pepsin)?
The value was “n.i”.

And the “Thermolysin, inhibitory activity as IC50 value” (thermolysin)?
Its value is “n.i”.

What about the IC50 (papain [1]) of the same molecule?
Its IC50 is 16000 nM.

And the IC50 (Cathepsin B [2])?
Its IC50 is 91.7 nM.

And the “Trypsin, inhibitory activity as IC50 value” (trypsin [3])?
The value was “n.i”.

What does the source list for `CCCCC/C=C/C(=O)N[C@H](Cc1ccc(O)cc1)C(=O)N[C@H](/C=C/C(=O)O)CCCNC(=N)N` [drawing 49]?
Rhodesain (%) inhibition (Rhodesain): ni; inhibition (Cathepsin B [4]): 5%; inhibition (hCatL): 7%

Which IC50 (ficin) does the source give for `CCCCC/C=C/C(=O)N[C@@H](Cc1ccc(O)cc1)C(=O)N[C@H](/C=C/C(=O)OCC)CCCN=C(N)N` [Barnesin A ethyl ester (3), (E)-Oct-2-enoyl-tyrosine-vinylogous arginine ethyl ester] here?
The IC50 was 3430 nM.

And the “Pepsin, inhibitory activity as IC50 value” (pepsin)?
Its value is “n.i”.

And the “Thermolysin, inhibitory activity as IC50 value” (thermolysin)?
The value was “n.i”.

And the IC50 (papain [1])?
Its IC50 is 2890 nM.

And the IC50 (Cathepsin B [2])?
Its IC50 is 24 nM.

And the “Trypsin, inhibitory activity as IC50 value” (trypsin [3])?
The value was “n.i”.

Which results are given for `CC(C)CC(=O)N[C@H](Cc1ccc(O)cc1)C(=O)N[C@H](C(=O)N[C@@H](C=O)Cc1ccccc1)C(C)C` [YM 51084] (Isovaleryl-[dY]-Val-[dF]-aldehyde)?
IC50 (papain [5]): 2200 nM; IC50 (Cathepsin B [6]): 12 nM

For `CC(C)[C@H](NC(=O)c1ccc(O)cc1)C(=O)N[C@H](C(=O)N[C@H](C=O)CCCNC(=N)N)C(C)C` [Tokaramide A], which IC50 (Cathepsin B [6]) is on record?
Its IC50 is 62.4 nM.

With Cystatin as the molecule, how does the IC50 (papain [5]) read?
The IC50 was 29 nM.

What about the IC50 (trypsin [7]) of the same molecule?
The IC50 was 3500 nM.

Which “inhibition of enzyme activity (control inhibitor), trypsin” value [8] does the source give for `O=S(=O)(F)Cc1ccccc1` [PMFS] here?
Its value is > 95%.
